According to publication PMC8842743 (Journal of Alzheimer's Disease Reports, 2022):

System: healthy subjects
Assay: Clinical liver safety laboratory data over time
Type: in vivo, human
Conditions: mean (SD)

In the case of `COc1cnc(C(=O)Nc2ccc(F)c([C@]34CN(c5ncc(F)cn5)C[C@H]3CSC(N)=N4)c2)cn1` [LY3202626], the Albumin (6 mg daily, Day 8) is reported as 46.3 (1.6) g/L, the GGT (6 mg daily, Day 8) is reported as 21.7 (10.8) U/L and the “Total Bilirubin” value (6 mg daily, Day 8) is reported as 8.1 (2.8) umol/L. The ALP (6 mg daily, Day 10) was 62.9 (15.4) U/L, the ALT (6 mg daily, Day 10) was 17.9 (2.3) U/L and the AST (6 mg daily, Day 10) was 19.6 (6.0) U/L. For the same compound, the Albumin (6 mg daily, Day 10) was 46.0 (1.7) g/L, the GGT (6 mg daily, Day 10) was 20.6 (8.7) U/L and the “Total Bilirubin” value (6 mg daily, Day 10) was 8.2 (2.7) umol/L. The ALP (6 mg daily, Day 12) was 63.6 (17.2) U/L, the ALT (6 mg daily, Day 12) was 16.9 (2.5) U/L and the AST (6 mg daily, Day 12) was 17.2 (3.8) U/L. The Albumin (6 mg daily, Day 12) was 46.7 (1.6) g/L, the GGT (6 mg daily, Day 12) was 20.3 (8.2) U/L and the “Total Bilirubin” value (6 mg daily, Day 12) was 7.4 (2.4) umol/L. For the same compound, the ALP (6 mg daily, Day 14) was 62.2 (16.0) U/L, the ALT (6 mg daily, Day 14) was 15.2 (2.5) U/L and the AST (6 mg daily, Day 14) was 15.3 (4.3) U/L. The Albumin (6 mg daily, Day 14) was 44.4 (1.8) g/L, the GGT (6 mg daily, Day 14) was 19.3 (10.3) U/L and the “Total Bilirubin” value (6 mg daily, Day 14) was 8.1 (5.0) umol/L. The ALP (6 mg daily, Day 15) was 58.9 (14.3) U/L, the ALT (6 mg daily, Day 15) was 16.1 (2.9) U/L and the AST (6 mg daily, Day 15) was 15.9 (3.9) U/L. The Albumin (6 mg daily, Day 15) was 43.8 (2.1) g/L, the GGT (6 mg daily, Day 15) was 18.6 (8.6) U/L and the “Total Bilirubin” value (6 mg daily, Day 15) was 7.3 (3.0) umol/L. For the same compound, the ALP (6 mg daily, Day 17) was 65.0 (18.7) U/L, the ALT (6 mg daily, Day 17) was 19.8 (4.3) U/L and the AST (6 mg daily, Day 17) was 18.9 (3.5) U/L. For the same compound, the Albumin (6 mg daily, Day 17) was 46.0 (1.7) g/L, the GGT (6 mg daily, Day 17) was 20.9 (9.7) U/L and the “Total Bilirubin” value (6 mg daily, Day 17) was 6.3 (4.7) umol/L. For the same compound, the ALP (26 mg daily, Day 1 predose) was 56.9 (12.0) U/L, the ALT (26 mg daily, Day 1 predose) was 16.9 (6.3) U/L and the AST (26 mg daily, Day 1 predose) was 15.2 (2.5) U/L. The Albumin (26 mg daily, Day 1 predose) was 46.3 (1.9) g/L, the GGT (26 mg daily, Day 1 predose) was 18.3 (8.2) U/L and the “Total Bilirubin” value (26 mg daily, Day 1 predose) was 9.0 (2.6) umol/L. For the same compound, the ALP (26 mg daily, Day 2) was 57.9 (11.3) U/L, the ALT (26 mg daily, Day 2) was 15.6 (6.2) U/L and the AST (26 mg daily, Day 2) was 14.6 (2.7) U/L. The Albumin (26 mg daily, Day 2) was 46.2 (1.9) g/L, the GGT (26 mg daily, Day 2) was 18.9 (8.5) U/L and the “Total Bilirubin” value (26 mg daily, Day 2) was 8.6 (2.6) umol/L. For the same compound, the ALP (26 mg daily, Day 3) was 57.2 (11.1) U/L, the ALT (26 mg daily, Day 3) was 16.2 (6.4) U/L and the AST (26 mg daily, Day 3) was 14.9 (3.6) U/L. The Albumin (26 mg daily, Day 3) was 45.0 (2.7) g/L, the GGT (26 mg daily, Day 3) was 18.6 (8.8) U/L and the “Total Bilirubin” value (26 mg daily, Day 3) was 7.1 (2.3) umol/L. For the same compound, the ALP (26 mg daily, Day 4) was 58.6 (10.8) U/L, the ALT (26 mg daily, Day 4) was 16.9 (5.6) U/L and the AST (26 mg daily, Day 4) was 16.8 (3.8) U/L. The Albumin (26 mg daily, Day 4) was 46.0 (1.9) g/L, the GGT (26 mg daily, Day 4) was 19.0 (9.6) U/L and the “Total Bilirubin” value (26 mg daily, Day 4) was 6.7 (1.4) umol/L. The ALP (26 mg daily, Day 6) was 57.6 (12.0) U/L, the ALT (26 mg daily, Day 6) was 16.2 (5.2) U/L and the AST (26 mg daily, Day 6) was 17.8 (3.2) U/L. For the same compound, the Albumin (26 mg daily, Day 6) was 44.9 (2.0) g/L, the GGT (26 mg daily, Day 6) was 18.2 (8.5) U/L and the “Total Bilirubin” value (26 mg daily, Day 6) was 8.6 (3.0) umol/L. For the same compound, the ALP (26 mg daily, Day 8) was 59.3 (10.8) U/L, the ALT (26 mg daily, Day 8) was 16.8 (4.5) U/L and the AST (26 mg daily, Day 8) was 16.4 (3.0) U/L. For the same compound, the Albumin (26 mg daily, Day 8) was 46.3 (2.9) g/L, the GGT (26 mg daily, Day 8) was 18.6 (7.2) U/L and the “Total Bilirubin” value (26 mg daily, Day 8) was 8.6 (4.6) umol/L. For the same compound, the ALP (26 mg daily, Day 10) was 60.7 (11.4) U/L, the ALT (26 mg daily, Day 10) was 15.8 (5.5) U/L and the AST (26 mg daily, Day 10) was 16.1 (2.7) U/L. The Albumin (26 mg daily, Day 10) was 45.8 (2.0) g/L, the GGT (26 mg daily, Day 10) was 17.9 (7.4) U/L and the “Total Bilirubin” value (26 mg daily, Day 10) was 8.7 (4.2) umol/L. For the same compound, the ALP (26 mg daily, Day 12) was 60.1 (9.6) U/L, the ALT (26 mg daily, Day 12) was 16.9 (5.6) U/L and the AST (26 mg daily, Day 12) was 18.3 (3.5) U/L. For the same compound, the Albumin (26 mg daily, Day 12) was 44.9 (2.3) g/L, the GGT (26 mg daily, Day 12) was 17.7 (7.4) U/L and the “Total Bilirubin” value (26 mg daily, Day 12) was 8.3 (4.5) umol/L. The ALP (26 mg daily, Day 14) was 59.3 (10.2) U/L, the ALT (26 mg daily, Day 14) was 17.1 (7.4) U/L and the AST (26 mg daily, Day 14) was 16.3 (4.0) U/L. The Albumin (26 mg daily, Day 14) was 43.7 (2.2) g/L, the GGT (26 mg daily, Day 14) was 18.1 (8.8) U/L and the “Total Bilirubin” value (26 mg daily, Day 14) was 5.8 (2.4) umol/L. The ALP (26 mg daily, Day 15) was 58.6 (9.6) U/L, the ALT (26 mg daily, Day 15) was 16.8 (7.8) U/L and the AST (26 mg daily, Day 15) was 16.2 (4.6) U/L. For the same compound, the Albumin (26 mg daily, Day 15) was 44.0 (2.6) g/L, the GGT (26 mg daily, Day 15) was 17.6 (8.8) U/L and the “Total Bilirubin” value (26 mg daily, Day 15) was 7.2 (1.9) umol/L. The ALP (26 mg daily, Day 17) was 65.7 (11.5) U/L, the ALT (26 mg daily, Day 17) was 20.0 (9.8) U/L and the AST (26 mg daily, Day 17) was 18.6 (6.2) U/L. For the same compound, the Albumin (26 mg daily, Day 17) was 45.9 (1.3) g/L, the GGT (26 mg daily, Day 17) was 20.7 (11.1) U/L and the “Total Bilirubin” value (26 mg daily, Day 17) was 7.3 (4.6) umol/L.
